Laboratory results reported in PubChem BioAssay (NCI).
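Growth conditions: 96-well plates. Treatment: test compound, 48 hours, 5 concentrations. Analysis: linear interpolation between bracketing concentrations; unreached endpoints set to highest concentration. At the GI50, growth is halved. TGI: total growth inhibition.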

Key:
Assay in all cases: NCI tumour cell line growth inhibition, 48 h
786-0 renal = tested on: 786-0 renal
OVCAR-3 ovarian = tested on: OVCAR-3 ovarian
MALME-3M melanoma = tested on: MALME-3M melanoma
SK-MEL-2 melanoma = tested on: SK-MEL-2 melanoma
CCRF-CEM leukemia = tested on: CCRF-CEM leukemia
ACHN renal = tested on: ACHN renal
SF-295 CNS = tested on: SF-295 CNS
SR leukemia = tested on: SR leukemia
MDA-MB-231 breast = tested on: MDA-MB-231 breast
HS 578T breast = tested on: HS 578T breast
SNB-75 CNS = tested on: SNB-75 CNS
LOX IMVI melanoma = tested on: LOX IMVI melanoma
OVCAR-8 ovarian = tested on: OVCAR-8 ovarian
MDA-MB-435 = tested on: MDA-MB-435
RXF 393 renal = tested on: RXF 393 renal
HT29 colon = tested on: HT29 colon
U251 CNS = tested on: U251 CNS
NCI-H460 lung = tested on: NCI-H460 lung
CAKI-1 renal = tested on: CAKI-1 renal
DU-145 prostate = tested on: DU-145 prostate
UACC-62 melanoma = tested on: UACC-62 melanoma
M14 melanoma = tested on: M14 melanoma
SNB-19 CNS = tested on: SNB-19 CNS
MOLT-4 leukemia = tested on: MOLT-4 leukemia
SF-539 CNS = tested on: SF-539 CNS
SK-OV-3 ovarian = tested on: SK-OV-3 ovarian
BT-549 breast = tested on: BT-549 breast
MCF7 breast = tested on: MCF7 breast
NCI-H522 lung = tested on: NCI-H522 lung
SF-268 CNS = tested on: SF-268 CNS
RPMI-8226 leukemia = tested on: RPMI-8226 leukemia
IGROV1 ovarian = tested on: IGROV1 ovarian
NCI/ADR-RES ovarian = tested on: NCI/ADR-RES ovarian
SN12C renal = tested on: SN12C renal
OVCAR-4 ovarian = tested on: OVCAR-4 ovarian
NCI-H226 lung = tested on: NCI-H226 lung
HCC-2998 colon = tested on: HCC-2998 colon
TK-10 renal = tested on: TK-10 renal
COLO 205 colon = tested on: COLO 205 colon
SK-MEL-5 melanoma = tested on: SK-MEL-5 melanoma
SK-MEL-28 melanoma = tested on: SK-MEL-28 melanoma
A498 renal = tested on: A498 renal
UO-31 renal = tested on: UO-31 renal
T-47D breast = tested on: T-47D breast
HOP-62 NSCLC = tested on: HOP-62 NSCLC
OVCAR-5 ovarian = tested on: OVCAR-5 ovarian
UACC-257 melanoma = tested on: UACC-257 melanoma
MDA-MB-468 breast = tested on: MDA-MB-468 breast
A549 NSCLC = tested on: A549 NSCLC
PC-3 prostate = tested on: PC-3 prostate
HOP-92 NSCLC = tested on: HOP-92 NSCLC
K-562 leukemia = tested on: K-562 leukemia
HCT-116 colon = tested on: HCT-116 colon
KM12 colon = tested on: KM12 colon
SW-620 colon = tested on: SW-620 colon
HCT-15 colon = tested on: HCT-15 colon

COc1cc(OC)c(S(=O)(=O)N(CCCl)CCCl)cc1C(=O)/C=C/c1cc(OC)c(OC)c(OC)c1
GI50 (786-0 renal): 1.95 µM
TGI (786-0 renal): 5.66 µM
GI50 (OVCAR-3 ovarian): 2.12 µM
TGI (OVCAR-3 ovarian): 6.62 µM
GI50 (MALME-3M melanoma): 2.48 µM
TGI (MALME-3M melanoma): 7.18 µM
GI50 (SK-MEL-2 melanoma): 2.06 µM
TGI (SK-MEL-2 melanoma): 4.65 µM
GI50 (CCRF-CEM leukemia): 1.69 µM
TGI (CCRF-CEM leukemia): > 100 µM
GI50 (ACHN renal): 2.08 µM
TGI (ACHN renal): 6.16 µM
GI50 (SF-295 CNS): 2.86 µM
TGI (SF-295 CNS): 35.4 µM
GI50 (SR leukemia): 0.993 µM
TGI (SR leukemia): > 100 µM
GI50 (MDA-MB-231 breast): 3.95 µM
TGI (MDA-MB-231 breast): > 100 µM
GI50 (HS 578T breast): 8.55 µM
TGI (HS 578T breast): > 100 µM
GI50 (SNB-75 CNS): 2.56 µM
TGI (SNB-75 CNS): 8.53 µM
GI50 (LOX IMVI melanoma): 1.44 µM
TGI (LOX IMVI melanoma): 2.89 µM
GI50 (OVCAR-8 ovarian): 4.06 µM
TGI (OVCAR-8 ovarian): > 100 µM
GI50 (MDA-MB-435): 2.53 µM
TGI (MDA-MB-435): 7.51 µM
GI50 (RXF 393 renal): 1.24 µM
TGI (RXF 393 renal): 2.83 µM
GI50 (HT29 colon): 2.34 µM
TGI (HT29 colon): 5.92 µM
GI50 (U251 CNS): 1.78 µM
TGI (U251 CNS): 3.68 µM
GI50 (NCI-H460 lung): 1.95 µM
TGI (NCI-H460 lung): 5.08 µM
GI50 (CAKI-1 renal): 2.72 µM
TGI (CAKI-1 renal): > 100 µM
GI50 (DU-145 prostate): 2.71 µM
TGI (DU-145 prostate): 14.8 µM
GI50 (UACC-62 melanoma): 2.1 µM
TGI (UACC-62 melanoma): 4.94 µM
GI50 (M14 melanoma): 2.09 µM
TGI (M14 melanoma): 5.45 µM
GI50 (SNB-19 CNS): 2.37 µM
TGI (SNB-19 CNS): 5.71 µM
GI50 (MOLT-4 leukemia): 2.04 µM
TGI (MOLT-4 leukemia): > 100 µM
GI50 (SF-539 CNS): 1.73 µM
TGI (SF-539 CNS): 3.61 µM
GI50 (SK-OV-3 ovarian): 3.47 µM
TGI (SK-OV-3 ovarian): 13 µM
GI50 (BT-549 breast): 1.37 µM
TGI (BT-549 breast): 2.92 µM
GI50 (MCF7 breast): 1.01 µM
TGI (MCF7 breast): 4.36 µM
GI50 (NCI-H522 lung): 1.66 µM
TGI (NCI-H522 lung): 3.78 µM
GI50 (SF-268 CNS): 2.62 µM
TGI (SF-268 CNS): 7.7 µM
GI50 (RPMI-8226 leukemia): 2.52 µM
TGI (RPMI-8226 leukemia): > 100 µM
GI50 (IGROV1 ovarian): 3.09 µM
TGI (IGROV1 ovarian): 9.05 µM
GI50 (NCI/ADR-RES ovarian): 2.58 µM
TGI (NCI/ADR-RES ovarian): > 100 µM
GI50 (SN12C renal): 2.26 µM
TGI (SN12C renal): 13 µM
GI50 (OVCAR-4 ovarian): 2.78 µM
TGI (OVCAR-4 ovarian): > 100 µM
GI50 (NCI-H226 lung): 2.61 µM
TGI (NCI-H226 lung): 8.95 µM
GI50 (HCC-2998 colon): 1.97 µM
TGI (HCC-2998 colon): 3.54 µM
GI50 (TK-10 renal): 6.09 µM
TGI (TK-10 renal): 75 µM
GI50 (COLO 205 colon): 2.37 µM
TGI (COLO 205 colon): 4.46 µM
GI50 (SK-MEL-5 melanoma): 1.84 µM
TGI (SK-MEL-5 melanoma): 3.64 µM
GI50 (SK-MEL-28 melanoma): 1.82 µM
TGI (SK-MEL-28 melanoma): 3.54 µM
GI50 (A498 renal): 2.79 µM
TGI (A498 renal): 7.23 µM
GI50 (UO-31 renal): 1.54 µM
TGI (UO-31 renal): 2.92 µM
GI50 (T-47D breast): 3.53 µM
TGI (T-47D breast): > 100 µM
GI50 (HOP-62 NSCLC): 3.77 µM
TGI (HOP-62 NSCLC): 22.8 µM
GI50 (OVCAR-5 ovarian): 2.51 µM
TGI (OVCAR-5 ovarian): 6.8 µM
GI50 (UACC-257 melanoma): 1.66 µM
TGI (UACC-257 melanoma): 3.89 µM
GI50 (MDA-MB-468 breast): 1.52 µM
TGI (MDA-MB-468 breast): 3.66 µM
GI50 (A549 NSCLC): 3.11 µM
TGI (A549 NSCLC): > 100 µM
GI50 (PC-3 prostate): 3.85 µM
TGI (PC-3 prostate): > 100 µM
GI50 (HOP-92 NSCLC): > 100 µM
TGI (HOP-92 NSCLC): > 100 µM
GI50 (K-562 leukemia): 1.3 µM
TGI (K-562 leukemia): > 100 µM
GI50 (HCT-116 colon): 1.23 µM
TGI (HCT-116 colon): 2.82 µM
GI50 (KM12 colon): 1.93 µM
TGI (KM12 colon): 4.26 µM
GI50 (SW-620 colon): 2.69 µM
TGI (SW-620 colon): 25.1 µM
GI50 (HCT-15 colon): 1.12 µM
TGI (HCT-15 colon): 3.98 µM
